Reference: patent US9617237B2, “Partially saturated tricyclic compounds and methods of making and using same” (Zafgen, Inc., priority 2011, dated 2017)
pIC50: −log10 of the molar value.

molecular target: T1, recombinant human MetAP2 (Homo sapiens, UniProt P50579); experiment: Inhibition of recombinant human MetAP2 activity (fluorescence, MAS substrate, amino acid oxidase/Amplex red); type: biochemical; conditions: manganese enzyme; 0.75 mM Methionine-Alanine-Serine (MAS) substrate; 30 minutes at 25° C.; pH 7.5; 1% DMSO
T1 construct: made in house; host or cells: Sf9 insect cells
Protocol: Compounds are tested for their capacity to inhibit recombinant human MetAP2 activity using the following assay.
Human recombinant MetAP2 expressed in Sf9 cells followed by affinity purification and EDTA treatment to remove endogenous active site cation was dialysed against MnCl2 to produce the manganese enzyme used in the assay. The assay was carried out for 30 minutes at 25° C. in 50 mM HEPES buffer containing 100 mM NaCl, pH 7.5 the presence of 0.75 mM Methionine-Alanine-Serine (MAS) substrate and 50 μg/ml amino acid oxidase using a dilution of purified MetAP2 giving >3-fold signal: noise. Cleavage of the substrate by MetAP2 and oxidation of free methionine by amino acid oxidase was detected and quantified using fluorescence generated by Amplex red (10-acetyl-3,7-dihydroxyphenoxazine) in combination with horseradish peroxidase which detects H2O2 released during the oxidation step. The fluorescent signal was detected using a multiwell fluorimeter. Compounds were diluted in DMSO prior to addition to assay buffer, the final DMSO concentration in the assay being 1%.
IC50 values are calculated using the XLfit software package (version 2.0.5).

T1 sequence (P50579 whole entry): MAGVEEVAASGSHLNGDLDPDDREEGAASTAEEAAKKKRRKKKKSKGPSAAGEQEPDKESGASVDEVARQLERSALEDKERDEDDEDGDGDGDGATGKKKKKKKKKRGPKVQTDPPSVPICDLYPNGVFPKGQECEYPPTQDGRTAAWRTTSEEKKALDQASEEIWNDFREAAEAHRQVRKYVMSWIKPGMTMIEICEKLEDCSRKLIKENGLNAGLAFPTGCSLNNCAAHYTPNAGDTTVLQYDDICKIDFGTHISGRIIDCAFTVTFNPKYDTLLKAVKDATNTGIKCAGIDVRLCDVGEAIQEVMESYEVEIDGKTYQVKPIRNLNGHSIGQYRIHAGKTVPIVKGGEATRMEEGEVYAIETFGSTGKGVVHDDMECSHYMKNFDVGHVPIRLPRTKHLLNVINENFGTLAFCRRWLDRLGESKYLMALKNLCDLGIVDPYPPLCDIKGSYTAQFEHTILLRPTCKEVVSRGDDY

| pIC50 | SMILES |
| --- | --- |
| 6.30 to 7.30 | CCN1CCC[C@@H]1C(=O)NCc1cc(F)ccc1S(=O)(=O)Nc1ccc2c(c1C(=O)O)OC[C@@H]1C[C@H]21 (mixture of isomers) [(1aRS,7bSR)-5-(2-{[((R)-1-Ethylpyrrolidine-2-yl)carbonyl-amino]methyl}-4-fluorobenzenesulfonylamino)-1,1a,2,7b-tetrahydrocyclopropa[c]chromene-4-carboxylic acid] |
| 6.30 to 7.30 | CCN1CC[C@@H](C(=O)NCc2cc(F)ccc2S(=O)(=O)Nc2ccc3c(c2C(=O)O)OC[C@@H]2C[C@H]32)C1 (mixture of isomers) [(1aRS,7bSR)-5-(2-{[((R)-1-Ethylpyrrolidine-3-carbonyl)amino]-methyl}-4-fluoro-benzenesulfonylamino)-1,1a,2,7b-tetrahydro-cyclopropa[c]chromene-4-carboxylic acid] |
| > 7.30 | CCN1CC[C@@H](Cc2cc(F)ccc2S(=O)(=O)Nc2ccc3c(c2C(=O)O)OC[C@@H]2C[C@H]32)C1 (mixture of isomers) [(1aRS,7bSR)-5-[2-((R)-1-Ethylpyrrolidin-3-ylmethyl)-4-fluorobenzenesulfonyl-amino]-1,1a,2,7b-tetrahydro-cyclopropa[c]chromene-4-carboxylic acid] |
| 6.30 to 7.30 | CCN1CC[C@H](Cc2cc(F)ccc2S(=O)(=O)Nc2ccc3c(c2C(=O)O)OC[C@@H]2C[C@H]32)C1 (mixture of isomers) [(1aRS,7bSR)-5-[2-((S)-1-Ethyl-pyrrolidin-3-ylmethyl)-4-fluorobenzenesulfonyl-amino]-1,1a,2,7b-tetrahydrocyclopropa[c]chromene-4-carboxylic acid] |
| > 7.30 | CCN1CCC[C@@H]1CCNc1ccccc1S(=O)(=O)Nc1ccc2c(c1C(=O)O)OC[C@@H]1C[C@H]21 (mixture of isomers) [(1aRS,7bSR)-5-{2-[2-((R)-1-Ethylpyrrolidin-2-yl)ethylamino]-benzenesulfonyl-amino}-1,1a,2,7b-tetrahydrocyclopropa-[c]chromene-4-carboxylic acid] |
| 6.30 to 7.30 | CCN1CC[C@@H](CCNc2ccccc2S(=O)(=O)Nc2ccc3c(c2C(=O)O)OC[C@@H]2C[C@H]32)C1 (mixture of isomers) [(1aRS,7bSR)-5-{2-[2-((R)-1-Ethylpyrrolidin-3-yl)ethylamino]-benzenesulfonylamino}-1,1a,2,7b-tetrahydrocyclopropa-[c]chromene-4-carboxylic acid] |
| 6.30 to 7.30 | CCN1CC[C@@H](NCCc2cc(F)ccc2S(=O)(=O)Nc2ccc3c(c2C(=O)O)OC[C@@H]2C[C@H]32)C1 (mixture of isomers) [(1aRS,7bSR)-5-{2-[2-((R)-1-Ethylpyrrolidin-3-ylamino)ethyl]-4-fluoro-benzenesulfonylamino}-1,1a,2,7b-tetrahydrocyclopropa-[c]chromene-4-carboxylic acid] |
| > 7.30 | CCN1CCC[C@H]1CCNc1ccccc1S(=O)(=O)Nc1ccc2c(c1C(=O)O)OC[C@@H]1C[C@H]21 (mixture of isomers) [(1aRS,7bSR)-5-{2-[2-((S)-1-Ethylpyrrolidin-2-yl)ethylamino]-benzenesulfonyl-amino}-1,1a,2,7b-tetrahydrocyclopropa-[c]chromene-4-carboxylic acid] |
| 6.30 to 7.30 | CCN1CC[C@H](CCNc2ccccc2S(=O)(=O)Nc2ccc3c(c2C(=O)O)OC[C@@H]2C[C@H]32)C1 (mixture of isomers) [(1aRS,7bSR)-5-{2-[2-((S)-1-Ethylpyrrolidin-3-yl)ethylamino]-benzenesulfonyl-amino}-1,1a,2,7b-tetrahydrocyclopropa-[c]chromene-4-carboxylic acid] |
| 6.30 to 7.30 | CCN1CC[C@@H](Nc2ccccc2S(=O)(=O)Nc2ccc3c(c2C(=O)O)OC[C@@H]2C[C@H]32)C1 (mixture of isomers) [(1aRS,7bSR)-5-{2-[((R)-1-Ethylpyrrolidin-3-yl)amino]-benzenesulfonylamino}-1,1a,2,7b-tetrahydrocyclopropa-[c]chromene-4-carboxylic acid] |
| 6.30 to 7.30 | CCN1CC[C@H](CNc2ccccc2S(=O)(=O)Nc2ccc3c(c2C(=O)O)OC[C@@H]2C[C@H]32)C1 (mixture of isomers) [(1aRS,7bSR)-5-{2-[((R)-1-Ethylpyrrolidin-3-ylmethyl)amino]-benzenesulfonylamino}-1,1a,2,7b-tetrahydrocyclopropa-[c]chromene-4-carboxylic acid] |
| > 7.30 | CCN1CCCC1C(=O)NCc1cc(F)ccc1S(=O)(=O)Nc1ccc2c(c1C(=O)O)OCC1CC21 (mixture of isomers) [(1aRS,7bSR)-5-{2-[((S)-1-Ethylpyrrolidin-2-yl)cabonyl-aminomethyl]-4-fluorobenzenesulfonylamino}-1,1a,2,7b-tetrahydrocyclopropa[c]chromene-4-carboxylic acid] |
| 6.30 to 7.30 | CCN1CC[C@H](Nc2ccccc2S(=O)(=O)Nc2ccc3c(c2C(=O)O)OC[C@@H]2C[C@H]32)C1 (mixture of isomers) [(1aRS,7bSR)-5-{2-[((S)-1-Ethylpyrrolidin-3-yl)amino]-benzenesulfonylamino}-1,1a,2,7b-tetrahydrocyclopropa-[c]chromene-4-carboxylic acid] |
| 6.30 to 7.30 | CCN1CC[C@H](NC(=O)Cc2cc(F)ccc2S(=O)(=O)Nc2ccc3c(c2C(=O)O)OC[C@@H]2C[C@H]32)C1 (mixture of isomers) [(1aRS,7bSR)-5-{2-[((S)-1-Ethylpyrrolidin-3-ylcarbamoyl)-methyl]-4-fluoro-benzenesulfonyl-amino}-1,1a,2,7b-tetrahydrocyclopropa-[c]chromene-4-carboxylic acid] |
| 6.30 to 7.30 | CCN1CC[C@@H](CNc2ccccc2S(=O)(=O)Nc2ccc3c(c2C(=O)O)OC[C@@H]2C[C@H]32)C1 (mixture of isomers) [(1aRS,7bSR)-5-{2-[((S)-1-Ethylpyrrolidin-3-ylmethyl)amino]-benzenesulfonylamino}-1,1a,2,7b-tetrahydrocyclopropa-[c]chromene-4-carboxylic acid] |
| 6.30 to 7.30 | CCN1CCC[C@@H]1C(=O)N(C)Cc1cc(F)ccc1S(=O)(=O)Nc1ccc2c(c1C(=O)O)OCC1CC21 (mixture of isomers) [(1aRS,7bSR)-5-(2-{N-[((R)-1-Ethylpyrrolidine-2-yl)carbonyl]-N-methylaminomethyl}-4-fluorobenzenesulfonylamino)-1,1a,2,7b-tetrahydrocyclopropa[c]chromene-4-carboxylic acid] |
| 6.30 to 7.30 | CCN1CC[C@H](C(=O)NCc2cc(F)ccc2S(=O)(=O)Nc2ccc3c(c2C(=O)O)OCC2CC32)C1 (mixture of isomers) [(1aRS,7bSR)-5-(2-{[((S)-1-ethylpyrrolidine-3-carbonyl)amino]methyl}-4-fluoro-benzenesulfonylamino)-1,1a,2,7b-tetrahydrocyclopropa[c]chromene-4-carboxylic acid] |
| > 7.30 | CCNC/C=C\c1cc(F)ccc1S(=O)(=O)Nc1ccc2c(c1C(=O)O)OC[C@@H]1C[C@H]21 (racemic) [(1aRS,7bSR)-5-[2((Z)-3-Ethylaminoprop-1-enyl)-4-fluoro-benzenesulfonylamino]-1,1a,2,7b-tetrahydrocyclopropa-[c]chromene-4-carboxylic acid] |
| 6.30 to 7.30 | CCN1CC(c2cc(F)ccc2S(=O)(=O)Nc2ccc3c(c2C(=O)O)OC[C@@H]2C[C@H]32)C1 (racemic) [(1aRS,7bSR)-5-[2-(1-Ethylazetidin-3-yl)-4-fluorobenzene-sulfonylamino]-1,1a,2,7b-tetrahydro-cyclopropa[c]chromene-4-carboxylic acid] |
| > 7.30 | CCN1CCC(Cc2cc(F)ccc2S(=O)(=O)Nc2ccc3c(c2C(=O)O)OC[C@@H]2C[C@H]32)CC1 (racemic) [(1aRS,7bSR)-5-[2-(1-Ethylpiperidin-4-ylmethyl)-4-fluoro-benzenesulfonylamino]-1,1a,2,7b-tetrahydrocyclopropa-[c]chromene-4-carboxylic acid] |
| > 7.30 | CN(C)CCCNc1ccccc1S(=O)(=O)Nc1ccc2c(c1C(=O)O)OC[C@@H]1C[C@H]21 (racemic) [(1aRS,7bSR)-5-[2-(3-Dimethylaminopropylamino)benzene-sulfonylamino]-1,1a,2,7b-tetrahydrocyclopropa[c]chromene-4-carboxylic acid] |
| 6.30 to 7.30 | CN(C)CCCNC(=O)c1ccccc1S(=O)(=O)Nc1ccc2c(c1C(=O)O)OC[C@@H]1C[C@H]21 (racemic) [(1aRS,7bSR)-5-[2-(3-Dimethylaminopropylcarbamoyl)benzene-sulfonylamino]-1,1a,2,7b-tetrahydrocyclopropa[c]chromene-4-carboxylic acid] |
| 6.30 to 7.30 | CN(C)CCCCNc1cc(F)ccc1S(=O)(=O)Nc1ccc2c(c1C(=O)O)OC[C@@H]1C[C@H]21 (racemic) [(1aRS,7bSR)-5-[2-(4-Dimethylaminobutylamino)-4-fluoro-benzenesulfonyl-amino]-1,1a,2,7b-tetrahydrocyclopropa-[c]chromene-4-carboxylic acid] |
| > 7.30 | CN(C)CCCCNc1ccccc1S(=O)(=O)Nc1ccc2c(c1C(=O)O)OC[C@@H]1C[C@H]21 (racemic) [(1aRS,7bSR)-5-[2-(4-Dimethylaminobutylamino)benzene-sulfonylamino]-1,1a,2,7b-tetrahydrocyclopropa[c]chromene-4-carboxylic acid] |
| 6.30 to 7.30 | CN(C)CCCC(=O)Nc1cc(F)ccc1S(=O)(=O)Nc1ccc2c(c1C(=O)O)OC[C@@H]1C[C@H]21 (racemic) [(1aRS,7bSR)-5-[2-(4-Dimethylaminobutyrylamino)-4-fluorobenzenesulfonyl-amino]-1,1a,2,7b-tetrahydrocyclopropa-[c]chromene-4-carboxylic acid] |
